The values below come from ChEMBL document CHEMBL5050826, “Compositions and methods for treating Friedreich's ataxia” (2019).

Test [1] concerns Flp-In-293. As to the kind of experiment: Induction of frataxin accumulation in human Flp-In-293 cells stably expressing frataxin at 10 uM assessed as increase in frataxin levels measured after 72 hrs by Western blot analysis. The test is classed as functional, cell-based.
The target of test [2] is T1, Frataxin, mitochondrial (Homo sapiens) (UniProt Q16595).
T1 sequence (whole entry): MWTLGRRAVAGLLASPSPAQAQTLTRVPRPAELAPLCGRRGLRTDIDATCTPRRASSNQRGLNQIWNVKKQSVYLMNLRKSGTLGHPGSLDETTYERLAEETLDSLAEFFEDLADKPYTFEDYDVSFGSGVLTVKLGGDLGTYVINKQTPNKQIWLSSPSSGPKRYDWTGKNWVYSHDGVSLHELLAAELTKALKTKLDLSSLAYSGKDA
As to the kind of experiment: Inhibition of frataxin ubiquitination in human HEK293 cells transiently co-transfected with HA-Ub and frataxin at 10 uM and measured after 48 hrs by Western blot analysis. The test is classed as cell-based.

Test [3] deals with Flp-In-293. As to the kind of experiment: Induction of frataxin accumulation in human Flp-In-293 cells stably expressing frataxin K147R mutant at 10 uM assessed as increase in frataxin levels measured after 24 hrs by Western blot analysis. In kind it is functional, cell-based.
The target of test [4] is T1, Frataxin, mitochondrial (Homo sapiens). As to the kind of experiment: Inhibition of recombinant frataxin (unknown origin) precursor degradation assessed as half-saturation binding constant (L1/2) and measured by fluorescence based assay.
For test [5], the system named is Flp-In-293. As to the kind of experiment: Induction of frataxin accumulation in human Flp-In-293 cells stably expressing frataxin at 10 uM assessed as increase in frataxin levels measured after 24 hrs by Western blot analysis. The test is classed as functional, cell-based. On the technique in general: Immunoblotting shows a protein as a band on a membrane.
Test [6] deals with Lymphocyte. Kind of test: Induction of frataxin accumulation in human FRDA-patient isolated lymphocyte at 10 uM assessed as increase in frataxin levels measured by Western blot analysis. The test is classed as functional, cell-based.
The test system of test [7] is Lymphocyte. As to the kind of experiment: Induction of frataxin accumulation in human FRDA-patient isolated lymphocyte at 1 uM assessed as increase in frataxin levels measured after 4 days by Western blot analysis. In kind it is functional, cell-based. Particulars: time 4.0 day.
Test [8] has as its system Lymphocyte. Kind of test: Rescue of aconitase activity in human FRDA-patient isolated lymphocyte at 10 uM […]. The test is classed as functional, cell-based.

Active and inactive are the calls of the source. The calls are words filed in the database; no cut-off is given here.

For `C/C(=N\NC(=O)c1ccc(C)cc1C)c1ccc2c(c1)Nc1ccccc1S2`, the outcome with Flp-In-293 [1], in the test with Flp-In-293 [5] and with Lymphocyte [6] was Active. In addition, in test [2], the inhibition result is “Active”. For the same molecule, the result in the test with Flp-In-293 [3] was inactive. Besides, the K1/2 in test [4] is 2.9 µM.
Take `COc1ccccc1C(=O)N/N=C(\C)c1ccc2c(c1)Nc1ccccc1S2`: the result with Lymphocyte [7] was Active.
Take `C/C(=N\NC(=O)c1cc2ccccc2cc1O)c1ccc2c(c1)Nc1ccccc1S2`: the inhibition entry in test [2] was “Active”. For the same molecule, the outcome in the test on Flp-In-293 [3] was inactive. Moreover, in the test on Flp-In-293 [5], the result was Active.
For `C/C(=N\NC(=O)c1ccccc1)c1ccc2c(c1)Nc1ccccc1S2`, the outcome in the test with Flp-In-293 [1], with Flp-In-293 [5], in the test on Lymphocyte [6] and in the test on Lymphocyte [8] was Active. The outcome in the test with Flp-In-293 [3] was inactive. Further, in test [4], the K1/2 is 2.3 µM.
